Data set [1] is described as follows: (§1) In vitro inhibition of calcium influx (L-type blocking activity) in AtT-20 mouse pituitary tumor-derived cells. It is filed as functional. The note with it: AtT20.
Data set [2] has as its target T1, Voltage-dependent N-type calcium channel subunit alpha-1B (Homo sapiens, UniProt Q00975). Kind of data set: In vitro inhibition of N-type calcium channel influx in IMR-32 human neuroblastoma cells. It is filed as cell-based.
Target sequence in this assay (Q00975 whole entry): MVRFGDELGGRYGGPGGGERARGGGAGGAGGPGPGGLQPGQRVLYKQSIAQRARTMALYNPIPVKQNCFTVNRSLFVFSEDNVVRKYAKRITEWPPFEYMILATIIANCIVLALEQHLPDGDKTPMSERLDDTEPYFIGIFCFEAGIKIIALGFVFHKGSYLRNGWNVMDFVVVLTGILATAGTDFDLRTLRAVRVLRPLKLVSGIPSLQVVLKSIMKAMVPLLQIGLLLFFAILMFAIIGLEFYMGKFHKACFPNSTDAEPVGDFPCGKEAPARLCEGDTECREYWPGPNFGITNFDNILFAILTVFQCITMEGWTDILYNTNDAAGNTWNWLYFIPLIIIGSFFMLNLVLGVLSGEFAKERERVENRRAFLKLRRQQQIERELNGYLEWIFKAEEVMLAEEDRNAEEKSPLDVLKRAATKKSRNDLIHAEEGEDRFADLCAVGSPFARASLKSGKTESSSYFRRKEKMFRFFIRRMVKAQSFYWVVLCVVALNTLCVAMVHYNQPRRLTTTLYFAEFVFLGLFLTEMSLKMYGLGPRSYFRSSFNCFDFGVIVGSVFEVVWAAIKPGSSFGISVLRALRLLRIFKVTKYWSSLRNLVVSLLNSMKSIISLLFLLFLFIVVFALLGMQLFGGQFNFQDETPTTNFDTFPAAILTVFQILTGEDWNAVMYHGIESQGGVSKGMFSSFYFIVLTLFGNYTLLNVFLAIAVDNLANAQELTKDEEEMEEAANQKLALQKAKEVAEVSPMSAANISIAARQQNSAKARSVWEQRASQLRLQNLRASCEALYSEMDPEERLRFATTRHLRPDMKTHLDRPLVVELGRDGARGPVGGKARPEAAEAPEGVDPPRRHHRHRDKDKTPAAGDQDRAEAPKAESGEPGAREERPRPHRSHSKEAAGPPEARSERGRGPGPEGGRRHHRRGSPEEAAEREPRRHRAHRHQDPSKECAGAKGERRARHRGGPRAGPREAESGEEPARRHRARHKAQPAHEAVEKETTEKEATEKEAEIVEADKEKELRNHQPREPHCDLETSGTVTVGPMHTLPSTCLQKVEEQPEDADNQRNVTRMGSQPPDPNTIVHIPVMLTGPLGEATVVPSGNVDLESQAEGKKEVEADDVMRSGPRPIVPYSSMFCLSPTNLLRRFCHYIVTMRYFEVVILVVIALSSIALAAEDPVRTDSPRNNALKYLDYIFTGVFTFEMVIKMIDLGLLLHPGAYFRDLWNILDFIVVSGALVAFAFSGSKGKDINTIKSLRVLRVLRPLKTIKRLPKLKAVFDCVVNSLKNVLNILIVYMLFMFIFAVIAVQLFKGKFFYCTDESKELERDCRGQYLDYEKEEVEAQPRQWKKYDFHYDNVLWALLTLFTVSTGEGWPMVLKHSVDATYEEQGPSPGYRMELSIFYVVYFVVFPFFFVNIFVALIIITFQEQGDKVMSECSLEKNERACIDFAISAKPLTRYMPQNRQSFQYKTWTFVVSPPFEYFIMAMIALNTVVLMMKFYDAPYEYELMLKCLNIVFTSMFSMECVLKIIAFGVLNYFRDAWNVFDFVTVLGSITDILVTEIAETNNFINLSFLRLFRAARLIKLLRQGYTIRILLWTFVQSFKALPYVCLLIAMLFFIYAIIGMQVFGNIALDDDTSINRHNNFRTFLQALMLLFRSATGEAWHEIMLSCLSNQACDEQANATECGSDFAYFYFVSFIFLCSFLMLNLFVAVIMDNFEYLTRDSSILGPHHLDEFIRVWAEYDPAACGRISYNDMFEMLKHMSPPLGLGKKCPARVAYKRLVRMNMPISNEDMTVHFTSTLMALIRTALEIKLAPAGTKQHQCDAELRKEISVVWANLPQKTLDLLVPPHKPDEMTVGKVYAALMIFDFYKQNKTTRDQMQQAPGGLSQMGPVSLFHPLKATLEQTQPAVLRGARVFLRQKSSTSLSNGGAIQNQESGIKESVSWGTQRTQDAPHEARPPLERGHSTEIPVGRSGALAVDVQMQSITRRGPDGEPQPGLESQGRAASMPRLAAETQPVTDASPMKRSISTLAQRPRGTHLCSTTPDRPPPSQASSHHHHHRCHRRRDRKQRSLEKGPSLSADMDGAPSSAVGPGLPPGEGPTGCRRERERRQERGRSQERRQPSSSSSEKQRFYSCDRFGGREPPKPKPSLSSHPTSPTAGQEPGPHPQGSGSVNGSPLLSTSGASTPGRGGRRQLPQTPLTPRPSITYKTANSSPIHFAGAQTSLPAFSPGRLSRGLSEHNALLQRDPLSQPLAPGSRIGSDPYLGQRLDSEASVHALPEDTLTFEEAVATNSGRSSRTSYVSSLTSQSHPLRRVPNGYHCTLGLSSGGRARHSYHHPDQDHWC
A short description of data set [3]: Selectivity IC50 ratio of L-type [Ca2+] channel blocking activity (AtT-20 mouse pituitary tumor-derived cells) to that of N-type blocking activity (IMR-32 human neuroblastoma cells).
Data set [4] can be described thus: Partition coefficient (logP). The note with it: octanol/water. It is filed as physicochemical.
Data set [5] concerns the target T1, Voltage-dependent N-type calcium channel subunit alpha-1B. Kind of data set: Percentage inhibition of N-type calcium channel influx in IMR-32 human neuroblastoma cells at 3 uM. It is filed as cell-based.
Target sequence in this assay (Q00975 whole entry, looked up): as the sequence (Q00975 whole entry) above
The test system of data set [6] is Rattus norvegicus. Kind of data set: Minimum effective oral dose required for the inhibition of paw flinching in rat formalin induced pain model. It is filed as functional. The following applies: read-out: MED.
In data set [7] the test system is Rattus norvegicus. Kind of data set: Minimum effective oral dose required for the antinociceptive effects on thermal hyperalgesia induced by CCI (chronic constriction injury) of the sciatic nerve in rat. It is filed as functional. The note with it: read-out: MED.
Data set [8] is described as follows: Selectivity IC50 ratio of L-type blocking activity (AtT-20 mouse pituitary tumor-derived cells) to that of N-type blocking activity (IMR-32 human neuroblastoma cells).
Data set [9] in a line: as §1. The note with it: AtT20.

Each structure is given as a SMILES string.

A word on the IC50: it is the point on the concentration scale where inhibition reaches its midpoint. With `CC(C)(C)OC(=O)N1CSC[C@H]1C(=O)N[C@@H](CSCC1CCCCC1)C(=O)N1CCC(NCc2ccccc2)CC1`, the concentration for half-maximal inhibition (IC50) in data set [1] is 2600 nM; in data set [2], 500 nM. Besides, the Ratio in data set [3] worked out at 5.2.

A word on the logP: it is a log measure of how a compound divides between an organic and an aqueous phase. Higher therefore signals a more lipophilic compound. For orientation: inhibition means the share of the control response that was lost under treatment. `CC(C)(C)OC(=O)N1CSC[C@H]1C(=O)N[C@@H](CSCC1CCCCC1)C(=O)NC1CCN(Cc2ccccc2)CC1` came in with a logP in data set [4] of 3.5. Also, the inhibition in [5] is 75%. Also, the minimal effective dose in the data set with Rattus norvegicus [6] was 10 mg/kg; in the data set with Rattus norvegicus [7], 30 mg/kg. The figures for the half-maximal inhibitory concentration (IC50) in data set [1] and in data set [2] were 5000 nM and 330 nM, respectively. Besides, the Ratio in data set [3] worked out at 15.

Consider `CC(C)(C)OC(=O)N1CSC[C@H]1C(=O)N[C@@H](CSCC1CCCCC1)C(=O)NCc1ccc(Oc2ccccc2)cc1`, for which, in data set [4], the lipophilicity (logP) came to 5. For the same compound, the minimal effective dose with Rattus norvegicus [6] is greater than 100 mg/kg. Further, the Ratio in data set [8] worked out at 12. Also, in data set [9], the IC50 was determined as 1700 nM.

`CC(C)(C)OC(=O)N1CSC[C@H]1C(=O)N[C@@H](CSCC1CCCCC1)C(=O)N1CCN(Cc2ccccc2)CC1`: the Ratio in data set [8] came to 2.7. Further, the concentration for half-maximal inhibition (IC50) in data set [9] came out at 1000 nM; in data set [2], 370 nM.

Compound `CC(C)(C)OC(=O)N1CSC[C@H]1C(=O)N[C@@H](CSCC1CCCCC1)C(=O)NCCNCc1ccccc1` gave a logP in data set [4] of 2.8. Besides, the Ratio in data set [8] came to 6.3. In addition, the half-inhibitory concentration (IC50) in data set [9] was 2400 nM; in data set [2], 380 nM.

In the case of `CC(C)(C)OC(=O)N1CSC[C@H]1C(=O)N[C@@H](CSCC1CCCCC1)C(=O)N1CCN(c2ccccc2)CC1`, in data set [8], the Ratio was determined as 1.5. Further, the IC50 in data set [9] stood at 580 nM; in data set [2], 390 nM.

`CC(C)(C)OC(=O)N1CSC[C@H]1C(=O)N[C@@H](CSCC1CCCCC1)C(=O)NC1CCN(c2ccccc2)CC1`: in data set [8], the Ratio stood at 3.6. In addition, the IC50 in data set [9] worked out at 540 nM; in data set [2] it was 150 nM.

On to `CC(C)(C)OC(=O)N1CSC[C@H]1C(=O)N[C@@H](CSCC1CCCCC1)C(=O)N1CCC(Nc2ccccc2)CC1`, for which the figures for the 50% inhibitory concentration (IC50) in data set [1] and in data set [2] were 540 nM and 660 nM, respectively. Moreover, the Ratio in data set [3] was found to be 0.82.

The record behind these values is ChEMBL document CHEMBL1134878, “L-Cysteine based N-type calcium channel blockers: structure-activity relationships of the C-terminal lipophilic moiety, and oral analgesic efficacy in rat pain models” (Bioorg Med Chem Lett, 2002).
